Assay results as given in patent EP2998000A1, “COMBINATION THERAPY FOR CANCER” (priority 2014, dated 2016).

Assays:
[1] = system: tumour cells; details: for Cytotoxicity E. coli: change of drug cytotoxicity on tumour cells after co-incubation with E. coli, bacteria removed by filtration, MTS, Up/Down/NC
[2] = system: tumour cells; assay: in vitro cytotoxicity screen of drugs co-incubated with L. welshimeri (tumour cell survival assay, MTS); details: change of drug cytotoxicity on tumour cells after co-incubation with L. welshimeri, bacteria removed by filtration, Up/Down/NC
[3] = system: Subcutaneous flank CT26 tumours; assay: murine model of intratumoural bacterial effects on chemotherapy
[4] = system: 4T1 Luc cells; assay: tumour cell survival assay, drug co-incubated with E. coli, supernatant applied to 4T1 Luc cells; format: cell-based, mouse; details: gemcitabine 10 µM co-incubated with E. coli at different cfu/ml, Figure 1b

| Compound | Cytotoxicity E. coli [1] | other results |
| --- | --- | --- |
| Nc1ncnc2c1ncn2[C@@H]1O[C@H](CO)[C@@H](O)[C@@H]1O [Vidarabine] | decreasing and Down | – |
| Nc1nc(Cl)nc2c1ncn2[C@H]1C[C@H](O)[C@@H](CO)O1 [Cladribine] | Down | Cytotoxicity L. welshimeri [2]: Down |
| CC1(C)CCC2=C(O1)c1ccccc1C(=O)C2=O [B-Lapachone] | Down | – |
| OC[C@H]1O[C@@H](n2cnc3c(S)ncnc32)C[C@@H]1O [6-Mercaptopurine-2’-deoxyriboside] | Up | – |
| Nc1nc(F)nc2c1ncn2[C@@H]1O[C@H](COP(=O)(O)O)[C@@H](O)[C@@H]1O [Fludarabine de phosphate] | Up | Cytotoxicity L. welshimeri [2]: Up |
| O=C1c2c(O)ccc(O)c2C(=O)c2c(NCCNCCO)ccc(NCCNCCO)c21 [Mitoxantrone] | Down | – |
| O=c1[nH]c(=O)n(C2CCCO2)cc1F (centres unmarked) [Tegafur] | increasing and Up | – |
| Nc1nc(=O)[nH]cc1F [5-fluorocytosine] | Up | – |
| Nc1ccn([C@@H]2O[C@H](CO)[C@@H](O)C2(F)F)c(=O)n1 [Gemcitabine] | decreasing and Down | cytotoxicity after incubation with heat-inactivated lysate (or intact bacteria) ([1]; gemcitabine 10 µM, E. coli heat-inactivated at 95 °C, Figure 2): no reduction in cytotoxicity; tumour volume ([3]; gemcitabine + bacteria group compared with gemcitabine alone group, various time points, gemcitabine 60 mg/kg i.p., E. coli i.t.): Significantly increased; median survival post Day 0 ([3]; gemcitabine + bacteria group: E. coli i.t., gemcitabine 60 mg/kg i.p.): 17 days; median survival post Day 0 ([3]; gemcitabine alone group: PBS i.t., gemcitabine 60 mg/kg i.p.): 28 days; efficacy (tumour cell survival) [4]: decreased |
| CC1=CC(=O)c2ccccc2C1=O [Menadione] | Down | – |
| COc1cc([C@@H]2c3cc4c(cc3[C@@H](O[C@@H]3O[C@@H]5CO[C@@H](C)O[C@H]5[C@H](O)[C@H]3O)[C@H]3COC(=O)[C@H]23)OCO4)cc(OC)c1OP(=O)(O)O [Etoposide phosphate] | decreasing and Down | – |
| COc1cccc2c1C(=O)c1c(O)c3c(c(O)c1C2=O)C[C@@](O)(C(=O)CO)C[C@@H]3O[C@H]1C[C@H](N)[C@H](O)[C@H](C)O1 [Doxorubicin] | Down | – |
| CC(=O)[C@]1(O)Cc2c(O)c3c(c(O)c2[C@@H](O[C@H]2C[C@H](N)[C@H](O)[C@H](C)O2)C1)C(=O)c1ccccc1C3=O [Idarubicin] | Down | – |
| COc1cccc2c1C(=O)c1c(O)c3c(c(O)c1C2=O)C[C@@](O)(C(C)=O)C[C@@H]3O[C@H]1C[C@H](N)[C@H](O)[C@H](C)O1 [Daunorubicin] | Down | Cytotoxicity L. welshimeri [2]: Down |
| NC(=O)c1cc(N2CC2)c([N+](=O)[O-])cc1[N+](=O)[O-] [CB1954] | Up | median survival post Day 0 ([3]; CB1954 + bacteria group: E. coli i.t., CB1954 20 mg/kg i.p.): 26 days; median survival post Day 0 ([3]; CB1954 alone group: PBS i.t., CB1954 20 mg/kg i.p.): 8 days; Cytotoxicity L. welshimeri [2]: Up |
